{
  "source": "patent US8382729B2",
  "about": "“Adhesive patch” (Hisamitsu Pharmaceutical Co., Inc., priority 2008, dated 2013)",
  "assay": "Measurement of plasma concentration after patch application",
  "type": "in vivo, human",
  "conditions": "for AUC(0-t) / Cmax: male, human, in vivo",
  "protocol": "The blood was collected at each of 0, 0.5, 1, 2, 3, 4, 6, 8, 10, 12, 18, and 24 hours from the start of the application, and the amount of blood collected each time was 7 mL.\nThe plasma concentrations of the methyl salicylate, its metabolite salicylic acid, and the 1-menthol were each measured. The measurement was performed by liquid chromatography-mass spectrometry for the salicylic acid and by gas chromatography-mass spectrometry for the methyl salicylate and the 1-menthol. Each of the measurement methods was validated beforehand to confirm measurement reliability. Incidentally, values obtained by subtracting an endogenous concentration before the application (measurement value on 0 hour from the start of the application) from an actual measurement value were used as plasma concentrations during the application. The Cmax and AUC0-24 were calculated according to the changes in the measurement values of these plasma concentrations over time.\nChanges in the plasma concentrations of the salicylic acid, the methyl salicylate, and the 1-menthol over time are shown in FIG. 4 to FIG. 6. In addition, the pharmacokinetic parameters (mean, maximum value, and minimum value of Cmax and AUC0-24) of each of the drugs are shown in Table 6. Incidentally, a mean in the figure was an average value from the seven human subjects and represented using a standard deviation (SD). This measurement of the plasma concentrations was performed according to the guideline of FDA (U.S. Food and Drug Administration) (Gaidance for Industry=Bioanalytical Method Validation).",
  "key": {"[1]": {"conditions": "plasma, 280 cm^2 adhesive patch of Example 1 (methyl salicylate 336 mg, l-menthol 100 mg) applied 8 hours, seven healthy males, baseline-subtracted"}, "[2]": {"conditions": "plasma, 280 cm^2 adhesive patch of Example 1 applied 8 hours, seven healthy males"}},
  "data": [
    {"smiles": "COC(=O)c1ccccc1O", "note": "[Methyl Salicylate]", "values": [
      {"measurement": "AUC(0-t)", "setting": "AUC0-24, Maximum Value", "value": 50, "unit": "ng·h/mL"},
      {"measurement": "AUC(0-t)", "setting": "AUC0-24, Minimum Value", "value": 8.1, "unit": "ng·h/mL"},
      {"measurement": "Cmax", "setting": "Maximum Value", "value": 33, "unit": "ng/mL"},
      {"measurement": "Cmax", "setting": "Minimum Value", "value": 3.5, "unit": "ng/mL"}
    ]},
    {"smiles": "O=C(O)c1ccccc1O", "note": "[Salicylic Acid]", "values": [
      {"measurement": "AUC(0-t)", "setting": "AUC0-24, Maximum Value", "value": 11800, "unit": "ng·h/mL"},
      {"measurement": "AUC(0-t)", "setting": "AUC0-24, Minimum Value", "value": 3950, "unit": "ng·h/mL"},
      {"measurement": "Cmax", "setting": "Maximum Value", "value": 1770, "unit": "ng/mL"},
      {"measurement": "Cmax", "setting": "Minimum Value", "value": 705, "unit": "ng/mL"}
    ]},
    {"smiles": "CC(C)[C@@H]1CC[C@@H](C)C[C@H]1O", "note": "[l-Menthol]", "values": [
      {"measurement": "AUC0-24, Mean ± SD", "setting": "[1]", "value": "53.6 ± 33.4", "unit": "ng·h/mL"},
      {"measurement": "Cmax, Mean ± SD", "setting": "[1]", "value": "10.7 ± 6.4", "unit": "ng/mL"},
      {"measurement": "AUC0-24, Maximum Value", "setting": "[2]", "value": 109, "unit": "ng·h/mL"},
      {"measurement": "AUC0-24, Minimum Value", "setting": "[2]", "value": 15.4, "unit": "ng·h/mL"},
      {"measurement": "Cmax, Maximum Value", "setting": "[2]", "value": 22.5, "unit": "ng/mL"},
      {"measurement": "Cmax, Minimum Value", "setting": "[2]", "value": 4.5, "unit": "ng/mL"}
    ]}
  ]
}
